Assay results taken from PubChem BioAssay (NCI).
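96-well plates; 48 h exposure; 5 concentrations. Endpoints by linear interpolation between flanking doses. Not reached: highest tested concentration assigned. Abbreviation: GI50, concentration required for 50% inhibition of growth. TGI marks complete inhibition of growth.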

Columns and labels:
Assay in all cases: NCI-60 cell line screen, 48 h
SF-295 CNS = tested on: SF-295 CNS
A549 NSCLC = tested on: A549 NSCLC
SF-539 CNS = tested on: SF-539 CNS
U251 CNS = tested on: U251 CNS
K-562 leukemia = tested on: K-562 leukemia
COLO 205 colon = tested on: COLO 205 colon
SR leukemia = tested on: SR leukemia
OVCAR-5 ovarian = tested on: OVCAR-5 ovarian
MALME-3M melanoma = tested on: MALME-3M melanoma
UO-31 renal = tested on: UO-31 renal

| SMILES | TGI (SF-295 CNS) [µM] | TGI (A549 NSCLC) [µM] | TGI (SF-539 CNS) [µM] | TGI (U251 CNS) [µM] | TGI (K-562 leukemia) [µM] | TGI (COLO 205 colon) [µM] | TGI (SR leukemia) [µM] | TGI (OVCAR-5 ovarian) [µM] | TGI (MALME-3M melanoma) [µM] | TGI (UO-31 renal) [µM] | GI50 (SR leukemia) [µM] | GI50 (SF-539 CNS) [µM] | GI50 (U251 CNS) [µM] | GI50 (OVCAR-5 ovarian) [µM] | GI50 (MALME-3M melanoma) [µM] | GI50 (K-562 leukemia) [µM] | GI50 (SF-295 CNS) [µM] | GI50 (A549 NSCLC) [µM] | GI50 (UO-31 renal) [µM] | GI50 (COLO 205 colon) [µM] |
| --- | --- | --- | --- | --- | --- | --- | --- | --- | --- | --- | --- | --- | --- | --- | --- | --- | --- | --- | --- | --- |
| COc1ccccc1NC(=O)CC(=O)NNCC(=O)Nc1nc(-c2ccccc2)cs1 | > 100 | > 100 | > 100 | > 100 | > 100 | > 100 | – | – | – | – | – | – | – | – | – | – | – | – | – | – |
| O=C1CCc2cc([N+](=O)[O-])ccc2O1 | > 100 | > 100 | > 100 | > 100 | > 100 | > 100 | > 100 | > 100 | > 100 | – | – | – | – | – | – | – | – | – | – | – |
| CC(=O)NC1=NC(=O)/C(=C/c2ccc(Cl)cc2Cl)N1C | > 100 | > 100 | > 100 | > 100 | – | > 100 | – | > 100 | – | > 100 | – | – | – | – | – | – | – | – | – | – |
| COc1cc2c(cc1OC)[C@@H]1[C@H](C2=O)c2ccc([N+](=O)[O-])cc2C(=O)N1CCCBr | – | 4.02 | 2.29 | 1.39 | > 100 | – | 0.311 | > 100 | 3.09 | – | < 0.01 | 0.387 | 0.134 | 1.64 | 0.367 | 1.26 | – | – | – | – |
| CC(=O)OC1CC[C@@]2(C)C(CC(OC3OC(CO)C(O)C(O)C3O)[C@]3(C)C2CCC24CC23CC[C@H]4C(C)CC(O)[C@@H](O)C(C)(C)O)C1(C)C (stereo partly specified) | > 50 | > 50 | 19.1 | 17.4 | 43.4 | 17.1 | – | > 50 | 18.8 | > 50 | – | – | – | – | – | – | – | – | – | – |
| O=C(N/C(=C\c1cc(Cl)ccc1Cl)c1nc2ccccc2[nH]1)c1ccccc1 | > 100 | > 100 | > 100 | > 100 | 76.6 | – | 81.7 | > 100 | > 100 | 62.7 | – | – | – | – | – | – | – | – | – | – |
| OCCOCn1nc(-c2ccccc2)nc1-c1cnccn1 | > 100 | > 100 | > 100 | > 100 | > 100 | > 100 | > 100 | > 100 | – | > 100 | – | – | – | – | – | – | – | – | – | – |
| COC(=O)C1=C(O)C(C(=O)OC)[C@@]2(O)[C@@H](C(=O)OC)C(c3ccc(OC(=O)C(Cc4ccccc4)NC(C)=O)cc3)C[C@@H]1[C@@H]2C(=O)OC (stereo partly specified) | 69.3 | 57.5 | 73.1 | 32.8 | > 100 | > 100 | > 100 | 97.3 | – | > 100 | 3.35 | 33.6 | 15.9 | 35 | – | 19.1 | 32.8 | 20.6 | 35.7 | 27.9 |
| CCCCC#Cc1c(I)n(C2OC(CO[Si](C)(C)C(C)(C)C)C3OC(C)(C)OC32)c(=O)[nH]c1=O (stereo unspecified) | 51.5 | 34.2 | – | > 100 | 5.02 | – | – | 27.9 | 24.8 | 11.2 | – | – | 21.9 | 14.4 | 5.45 | 2.02 | 22 | 16.6 | 1.53 | – |
| O=C(CC1Sc2ccccc2NC1=O)Nc1ccc([N+](=O)[O-])cc1[N+](=O)[O-] (stereo unspecified) | 34.2 | 88.7 | – | 30.3 | – | > 100 | – | 62.3 | 40.6 | 25.1 | – | – | – | – | – | – | – | – | – | – |
| N=C(N)c1ccc(-c2ccc(-c3ccco3)o2)cc1 | – | 18.9 | 21.5 | 11.8 | 10.4 | 3.48 | 10.7 | 18.8 | 4.12 | 16.3 | 3.17 | 8.96 | 2.92 | 4.98 | 2.15 | 2.66 | – | 4.76 | 3.17 | 1.78 |
| O=C(CCCCCCCCC(=O)OCCCn1cc(C(=O)NC(=O)OCc2ccccc2)c(=O)[nH]c1=O)OCCCn1cc(C(=O)NC(=O)OCc2ccccc2)c(=O)[nH]c1=O | > 100 | > 100 | > 100 | > 100 | > 100 | > 100 | – | > 100 | > 100 | > 100 | – | – | – | – | – | – | – | – | – | – |
| O=C(CCCCCn1c2ccccc2c2c3c(c4c5ccccc5[nH]c4c21)C(=O)N(O)C3=O)N1CCOCC1 | – | 24 | – | 5.59 | 6.23 | 5.65 | 5.45 | > 100 | 6.34 | 4.28 | 1.12 | – | 2.26 | 3.49 | 2.26 | 2.11 | – | 4.22 | 1.6 | 2.3 |
| Nc1nc(Cl)cc2c1ncn2C1OC(CO)C(O)C1O (stereo unspecified) | – | > 100 | > 100 | > 100 | > 100 | > 100 | > 100 | > 100 | > 100 | > 100 | > 100 | > 100 | > 100 | > 100 | > 100 | > 100 | – | > 100 | > 100 | > 100 |
| CC(C)=CCNc1ncnc2c1ncn2C1OC(COP(=O)(O)O)C(O)C1O (stereo unspecified) | 34 | > 100 | 38.9 | > 100 | > 100 | > 58.8 | – | > 100 | > 100 | > 52 | – | 4 | > 100 | 32.9 | 73.8 | 4.22 | 5.8 | 7.39 | 4.1 | 4.59 |
| COc1cc(OC)c(Oc2cccc(OC)c2OC)c(OC)c1 | > 100 | > 100 | > 100 | > 100 | > 100 | > 100 | > 100 | > 100 | – | > 100 | – | – | – | – | – | – | – | – | – | – |
| O=c1c2ccccc2oc2nccnc12 | > 100 | > 100 | > 100 | > 100 | > 100 | > 100 | – | > 100 | > 100 | > 100 | – | – | – | – | – | – | – | – | – | – |
| COc1ncn(C2C=C(CO)C(O)C2O)c(=O)n1 (stereo unspecified) | – | > 100 | > 100 | > 100 | > 100 | > 100 | – | – | > 100 | > 100 | – | – | – | – | – | – | – | – | – | – |
| Cc1ccc(NC(=O)C(=O)C2C(=O)C3=C(CC2(C)C)NC2C=CC=CC2S3)c(C)c1 (stereo unspecified) | > 100 | > 100 | > 100 | > 100 | – | > 100 | – | – | – | > 100 | – | – | – | – | – | – | – | – | – | – |
